Key:
Assay in all cases: Eurofins kinase profiling
Format in all cases: biochemical
Axl(h) = target: T1, Axl(h) (Homo sapiens, UniProt P30530); settings: read-out: residual kinase activity Axl(h)
T1 construct: purchased Eurofins KinaseProfiler
T1 sequence (P30530 26-894): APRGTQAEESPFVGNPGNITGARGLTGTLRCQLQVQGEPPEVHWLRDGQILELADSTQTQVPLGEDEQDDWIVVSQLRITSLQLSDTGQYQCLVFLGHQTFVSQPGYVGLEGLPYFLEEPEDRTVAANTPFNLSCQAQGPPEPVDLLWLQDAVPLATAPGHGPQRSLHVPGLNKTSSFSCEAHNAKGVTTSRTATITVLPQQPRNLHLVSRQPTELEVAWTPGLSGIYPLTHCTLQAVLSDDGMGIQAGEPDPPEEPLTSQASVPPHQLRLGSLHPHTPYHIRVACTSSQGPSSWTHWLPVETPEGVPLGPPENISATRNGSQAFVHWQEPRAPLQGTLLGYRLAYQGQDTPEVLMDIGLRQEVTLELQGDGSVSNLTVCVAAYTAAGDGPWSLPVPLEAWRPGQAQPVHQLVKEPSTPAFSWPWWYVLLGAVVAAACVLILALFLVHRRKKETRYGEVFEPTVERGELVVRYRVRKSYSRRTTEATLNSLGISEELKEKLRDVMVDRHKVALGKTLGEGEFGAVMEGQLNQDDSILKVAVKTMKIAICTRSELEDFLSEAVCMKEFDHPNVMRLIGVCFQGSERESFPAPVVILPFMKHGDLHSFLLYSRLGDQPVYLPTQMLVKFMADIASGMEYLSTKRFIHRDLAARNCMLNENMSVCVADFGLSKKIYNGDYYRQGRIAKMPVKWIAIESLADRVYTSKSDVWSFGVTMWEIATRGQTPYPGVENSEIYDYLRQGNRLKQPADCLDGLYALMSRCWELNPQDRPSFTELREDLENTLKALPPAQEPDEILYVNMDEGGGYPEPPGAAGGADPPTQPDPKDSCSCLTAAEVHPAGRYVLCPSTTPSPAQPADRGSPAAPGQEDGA
Method in brief: (§1)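 At a fixed 1 µM, the compound was profiled against each kinase, whose activity was quantified through radiolabeled phosphate incorporation.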

cKit(h) = target: T2, cKit(h) (Homo sapiens, UniProt P10721); settings: read-out: residual kinase activity cKit(h)
T2 construct: purchased Eurofins KinaseProfiler
Method in brief: as §1

CHK1(h) = target: T3, CHK1(h) (Homo sapiens, UniProt O14757); settings: read-out: residual kinase activity CHK1(h)
T3 construct: purchased Eurofins KinaseProfiler
T3 sequence (O14757 1-476): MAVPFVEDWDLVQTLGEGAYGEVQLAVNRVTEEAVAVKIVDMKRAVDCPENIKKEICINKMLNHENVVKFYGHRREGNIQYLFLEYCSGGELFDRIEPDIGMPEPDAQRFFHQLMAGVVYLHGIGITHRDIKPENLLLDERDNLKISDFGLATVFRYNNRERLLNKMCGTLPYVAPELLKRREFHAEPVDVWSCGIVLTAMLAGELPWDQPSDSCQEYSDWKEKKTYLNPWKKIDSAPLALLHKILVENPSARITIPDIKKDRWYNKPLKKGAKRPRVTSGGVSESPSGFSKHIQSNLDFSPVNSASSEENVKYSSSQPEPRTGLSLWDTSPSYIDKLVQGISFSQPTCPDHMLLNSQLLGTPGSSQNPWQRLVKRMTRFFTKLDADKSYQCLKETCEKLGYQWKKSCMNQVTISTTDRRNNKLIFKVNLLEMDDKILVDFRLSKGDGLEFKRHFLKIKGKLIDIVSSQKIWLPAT
Method in brief: as §1

IKKε(h) = target: T4, IKKε(h) (Homo sapiens, UniProt Q14164); settings: read-out: residual kinase activity IKKε(h)
T4 construct: purchased Eurofins KinaseProfiler
T4 sequence (Q14164 1-716): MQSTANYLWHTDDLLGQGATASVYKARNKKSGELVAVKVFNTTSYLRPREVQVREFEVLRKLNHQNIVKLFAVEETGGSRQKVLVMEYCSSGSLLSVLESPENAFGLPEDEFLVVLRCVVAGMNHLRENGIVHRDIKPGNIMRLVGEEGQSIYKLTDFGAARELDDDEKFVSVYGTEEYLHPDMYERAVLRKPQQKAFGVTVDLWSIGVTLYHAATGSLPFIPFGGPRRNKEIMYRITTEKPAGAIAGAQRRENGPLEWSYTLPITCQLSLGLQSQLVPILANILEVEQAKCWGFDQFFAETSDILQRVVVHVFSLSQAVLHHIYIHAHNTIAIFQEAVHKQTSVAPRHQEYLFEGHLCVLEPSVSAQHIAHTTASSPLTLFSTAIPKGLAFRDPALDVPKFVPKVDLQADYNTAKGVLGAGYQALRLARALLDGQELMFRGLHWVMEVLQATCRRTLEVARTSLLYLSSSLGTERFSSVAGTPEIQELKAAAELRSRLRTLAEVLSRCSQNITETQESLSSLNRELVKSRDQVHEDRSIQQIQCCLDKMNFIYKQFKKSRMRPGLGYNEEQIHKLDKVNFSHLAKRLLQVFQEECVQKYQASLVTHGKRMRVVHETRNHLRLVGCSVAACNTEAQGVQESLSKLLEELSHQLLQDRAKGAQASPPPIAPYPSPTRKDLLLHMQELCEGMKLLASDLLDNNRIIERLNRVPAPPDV
Method in brief: as §1

ErbB2(h) = target: T5, ErbB2(h) (Homo sapiens, UniProt P04626); settings: read-out: residual kinase activity ErbB2(h)
T5 construct: purchased Eurofins KinaseProfiler
Method in brief: as §1

EGFR(h) = target: T6, EGFR(h) (Homo sapiens, UniProt P00533); settings: read-out: residual kinase activity EGFR(h)
T6 construct: purchased Eurofins KinaseProfiler
Method in brief: as §1

[1] = target: T7, PI3 Kinase (p110a(E545K)/p85a)(h) (Homo sapiens, UniProt P42336, E545K); settings: read-out: residual kinase activity PI3 Kinase (p110a(E545K)/p85a)(h)
T7 construct: purchased Eurofins KinaseProfiler
Method in brief: as §1

PDGFRα(D842V)(h) = target: T8, PDGFRα(D842V)(h) (Homo sapiens, UniProt P16234, D842V); settings: read-out: residual kinase activity PDGFRα(D842V)(h)
T8 construct: purchased Eurofins KinaseProfiler
Method in brief: as §1

FGFR2(h) = target: T9, FGFR2(h) (Homo sapiens, UniProt P21802); settings: read-out: residual kinase activity FGFR2(h)
T9 construct: purchased Eurofins KinaseProfiler
Method in brief: as §1

PAK4(h) = target: T10, PAK4(h) (Homo sapiens, UniProt O96013); settings: read-out: residual kinase activity PAK4(h)
T10 construct: purchased Eurofins KinaseProfiler
Method in brief: as §1

T7 sequence (P42336 whole entry E545K): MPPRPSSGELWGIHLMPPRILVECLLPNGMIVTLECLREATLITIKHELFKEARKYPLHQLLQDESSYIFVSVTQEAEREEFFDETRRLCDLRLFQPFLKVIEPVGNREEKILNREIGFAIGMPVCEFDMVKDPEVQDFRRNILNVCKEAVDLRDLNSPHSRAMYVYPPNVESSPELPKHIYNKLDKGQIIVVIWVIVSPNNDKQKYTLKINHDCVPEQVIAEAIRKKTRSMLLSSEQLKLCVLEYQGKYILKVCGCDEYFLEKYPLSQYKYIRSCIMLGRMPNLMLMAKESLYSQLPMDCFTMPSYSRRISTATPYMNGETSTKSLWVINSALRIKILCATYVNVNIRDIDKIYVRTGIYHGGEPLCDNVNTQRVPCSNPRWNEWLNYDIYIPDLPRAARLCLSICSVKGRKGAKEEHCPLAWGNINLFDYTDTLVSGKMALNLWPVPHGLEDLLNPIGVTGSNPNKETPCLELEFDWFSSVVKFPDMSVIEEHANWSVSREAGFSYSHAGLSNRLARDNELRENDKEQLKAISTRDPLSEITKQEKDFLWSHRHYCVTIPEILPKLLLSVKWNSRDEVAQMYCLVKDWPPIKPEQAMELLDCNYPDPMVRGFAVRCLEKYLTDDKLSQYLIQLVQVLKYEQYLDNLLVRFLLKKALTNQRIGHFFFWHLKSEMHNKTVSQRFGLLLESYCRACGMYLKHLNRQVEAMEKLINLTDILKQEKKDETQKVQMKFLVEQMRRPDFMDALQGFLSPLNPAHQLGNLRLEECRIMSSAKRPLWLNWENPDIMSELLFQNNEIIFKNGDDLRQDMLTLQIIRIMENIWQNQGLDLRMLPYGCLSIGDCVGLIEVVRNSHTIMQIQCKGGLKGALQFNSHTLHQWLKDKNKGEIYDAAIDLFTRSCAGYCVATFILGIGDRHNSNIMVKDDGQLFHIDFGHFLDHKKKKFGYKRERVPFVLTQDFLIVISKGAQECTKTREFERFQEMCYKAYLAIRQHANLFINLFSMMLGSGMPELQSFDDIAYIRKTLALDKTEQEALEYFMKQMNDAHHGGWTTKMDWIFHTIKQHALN
T7 sequence (P27986 whole entry partner): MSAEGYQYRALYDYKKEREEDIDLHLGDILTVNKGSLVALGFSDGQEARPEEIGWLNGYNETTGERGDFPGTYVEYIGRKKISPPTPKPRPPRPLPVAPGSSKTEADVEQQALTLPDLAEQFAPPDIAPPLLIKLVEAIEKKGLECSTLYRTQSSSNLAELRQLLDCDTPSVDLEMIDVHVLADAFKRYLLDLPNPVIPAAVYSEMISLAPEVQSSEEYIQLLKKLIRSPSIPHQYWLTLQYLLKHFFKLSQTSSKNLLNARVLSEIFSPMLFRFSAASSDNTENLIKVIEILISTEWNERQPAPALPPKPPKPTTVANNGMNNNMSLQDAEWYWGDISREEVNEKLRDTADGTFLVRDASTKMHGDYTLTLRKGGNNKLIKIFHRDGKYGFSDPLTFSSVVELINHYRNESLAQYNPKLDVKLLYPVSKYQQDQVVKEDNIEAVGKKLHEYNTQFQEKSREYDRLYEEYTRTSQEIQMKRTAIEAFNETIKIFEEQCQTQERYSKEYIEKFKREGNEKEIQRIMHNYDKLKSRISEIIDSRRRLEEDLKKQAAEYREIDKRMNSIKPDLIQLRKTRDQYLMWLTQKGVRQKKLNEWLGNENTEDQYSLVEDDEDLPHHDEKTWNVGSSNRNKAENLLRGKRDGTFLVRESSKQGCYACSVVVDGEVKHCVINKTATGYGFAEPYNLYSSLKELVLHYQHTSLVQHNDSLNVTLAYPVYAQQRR
T2 sequence (P10721 26-976): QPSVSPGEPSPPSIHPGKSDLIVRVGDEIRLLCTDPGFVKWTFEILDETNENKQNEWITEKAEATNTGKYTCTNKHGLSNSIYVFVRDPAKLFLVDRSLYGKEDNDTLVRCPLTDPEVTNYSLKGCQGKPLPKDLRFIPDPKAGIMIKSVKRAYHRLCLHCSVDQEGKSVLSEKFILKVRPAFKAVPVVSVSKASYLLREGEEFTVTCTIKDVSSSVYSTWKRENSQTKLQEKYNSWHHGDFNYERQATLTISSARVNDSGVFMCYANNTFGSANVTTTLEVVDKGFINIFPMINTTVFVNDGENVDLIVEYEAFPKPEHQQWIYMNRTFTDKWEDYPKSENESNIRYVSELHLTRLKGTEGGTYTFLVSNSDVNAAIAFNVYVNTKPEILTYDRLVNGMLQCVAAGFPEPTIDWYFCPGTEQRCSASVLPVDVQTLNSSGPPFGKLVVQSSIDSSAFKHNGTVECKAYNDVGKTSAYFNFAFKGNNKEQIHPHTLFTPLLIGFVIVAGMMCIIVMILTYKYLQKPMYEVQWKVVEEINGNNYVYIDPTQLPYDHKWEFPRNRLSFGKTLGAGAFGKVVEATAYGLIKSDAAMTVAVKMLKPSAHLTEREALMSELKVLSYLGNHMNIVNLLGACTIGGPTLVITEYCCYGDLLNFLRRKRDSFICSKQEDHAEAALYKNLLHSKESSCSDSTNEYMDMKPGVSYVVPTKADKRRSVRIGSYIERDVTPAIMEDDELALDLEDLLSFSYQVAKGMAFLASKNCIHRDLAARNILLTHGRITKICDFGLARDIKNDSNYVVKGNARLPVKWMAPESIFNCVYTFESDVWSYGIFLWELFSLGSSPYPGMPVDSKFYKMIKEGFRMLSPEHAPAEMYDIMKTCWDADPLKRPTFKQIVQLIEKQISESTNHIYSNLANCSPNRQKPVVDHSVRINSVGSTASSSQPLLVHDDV
T10 sequence (O96013 whole entry): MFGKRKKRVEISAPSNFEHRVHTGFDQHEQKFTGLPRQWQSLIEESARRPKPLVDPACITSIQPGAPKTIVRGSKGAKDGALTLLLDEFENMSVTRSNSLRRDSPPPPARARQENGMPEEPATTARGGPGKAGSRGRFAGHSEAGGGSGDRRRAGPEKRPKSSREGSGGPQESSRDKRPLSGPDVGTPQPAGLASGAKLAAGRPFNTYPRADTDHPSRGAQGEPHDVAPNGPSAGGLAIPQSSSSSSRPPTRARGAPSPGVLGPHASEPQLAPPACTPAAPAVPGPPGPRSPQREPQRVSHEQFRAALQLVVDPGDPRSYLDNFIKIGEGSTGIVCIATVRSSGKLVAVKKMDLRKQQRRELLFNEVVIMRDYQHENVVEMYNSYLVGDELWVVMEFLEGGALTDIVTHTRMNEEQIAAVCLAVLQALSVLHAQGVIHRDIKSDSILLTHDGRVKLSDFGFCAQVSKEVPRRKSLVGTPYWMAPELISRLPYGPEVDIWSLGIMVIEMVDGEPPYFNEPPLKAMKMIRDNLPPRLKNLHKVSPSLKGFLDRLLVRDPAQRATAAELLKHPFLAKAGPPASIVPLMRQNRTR
T8 sequence (P16234 24-1089 D842V): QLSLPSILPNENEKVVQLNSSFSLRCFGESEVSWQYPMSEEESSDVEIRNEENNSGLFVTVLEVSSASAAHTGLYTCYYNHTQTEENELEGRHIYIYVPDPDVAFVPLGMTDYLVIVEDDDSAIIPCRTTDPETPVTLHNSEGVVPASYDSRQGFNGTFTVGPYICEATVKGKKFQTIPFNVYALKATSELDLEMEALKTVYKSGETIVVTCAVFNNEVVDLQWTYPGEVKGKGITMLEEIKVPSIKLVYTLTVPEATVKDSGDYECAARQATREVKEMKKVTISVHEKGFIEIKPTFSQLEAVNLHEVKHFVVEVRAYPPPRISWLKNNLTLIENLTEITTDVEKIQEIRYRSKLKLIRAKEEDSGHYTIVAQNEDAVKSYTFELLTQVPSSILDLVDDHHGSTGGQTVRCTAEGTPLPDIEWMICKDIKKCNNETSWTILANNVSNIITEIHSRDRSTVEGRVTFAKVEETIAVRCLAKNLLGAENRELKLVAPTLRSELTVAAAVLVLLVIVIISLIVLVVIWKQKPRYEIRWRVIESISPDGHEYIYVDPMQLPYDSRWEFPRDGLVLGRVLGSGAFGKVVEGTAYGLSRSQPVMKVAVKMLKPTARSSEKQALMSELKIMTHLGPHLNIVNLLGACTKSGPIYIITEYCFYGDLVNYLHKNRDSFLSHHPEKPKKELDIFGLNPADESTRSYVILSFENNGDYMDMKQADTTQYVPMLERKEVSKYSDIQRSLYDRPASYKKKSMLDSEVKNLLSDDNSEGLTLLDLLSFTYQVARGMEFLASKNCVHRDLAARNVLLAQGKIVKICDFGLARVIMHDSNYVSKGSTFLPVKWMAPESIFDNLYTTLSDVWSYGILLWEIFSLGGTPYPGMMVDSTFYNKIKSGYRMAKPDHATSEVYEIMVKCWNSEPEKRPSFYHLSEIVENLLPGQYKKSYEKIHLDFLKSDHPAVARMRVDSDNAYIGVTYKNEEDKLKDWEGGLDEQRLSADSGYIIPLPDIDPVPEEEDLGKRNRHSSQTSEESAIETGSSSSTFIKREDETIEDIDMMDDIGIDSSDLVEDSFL

SMILES	remaining activity at 1 µM (Axl(h)) [%]	remaining activity at 1 µM (cKit(h)) [%]	remaining activity at 1 µM (CHK1(h)) [%]	remaining activity at 1 µM (IKKε(h)) [%]	remaining activity at 1 µM (ErbB2(h)) [%]	remaining activity at 1 µM (EGFR(h)) [%]	remaining activity at 1 µM [1] [%]	remaining activity at 1 µM (PDGFRα(D842V)(h)) [%]	remaining activity at 1 µM (FGFR2(h)) [%]	remaining activity at 1 µM (PAK4(h)) [%]
CONC(=O)c1ccccc1Nc1cc(Nc2cc(C)nn2C(C)C)ncc1Cl [GSK2256098]	84	93	85	102	94	98	93	119	98	93
CNC(=O)c1cccc(C)c1Nc1nc(Nc2ccc(N3CCN(C4C5CC6CC4CC(O)(C6)C5)CC3)cc2OC)ncc1C(F)(F)F (stereo not drawn) [SJP1602, 2-((2-((4-(4-((2s,5r)-5-hydroxyadamantan-2-yl)piperazin-1-yl)-2-methoxyphenyl)amino)-5-(trifluoromethyl)pyrimidin-4-yl)amino)-N,3-dimethylbenzamide]	105	97	62	103	113	112	98	141	90	85
CNC(=O)c1ccc(Nc2ncc(C(F)(F)F)c(NCc3nccnc3N(C)S(C)(=O)=O)n2)cc1 [VS-6063, Defactinib]	57	80	58	88	122	105	100	87	46	42
